In series [1] the test system is T. brucei brucei Lister 427 bloodstream forms. Description: Efficacy against T. brucei bloodstream forms, resazurin-based assay. It is filed as cell-based, Trypanosoma brucei brucei. The conditions noted are these: 72 h; for % inhibition T. brucei at 10 µM ± SD: 10 µM compound, T. brucei brucei Lister 427 bloodstream form; for inhibition at 10 µM: Trypanosoma brucei, read-out: % inhibition T. brucei at 10 µM ± SD.

Series [2] is described as follows: Cytotoxicity on THP-1-derived macrophages, colorimetric MTT assay. It is filed as cell-based. As to conditions: human.
Series [3] has as its target L. major DHFR (LmDHFR). As to conditions: read-out: Ki LmDHFR; cited from earlier work.
In series [4] the target is human DHFR (hDHFR). The conditions noted are these: read-out: Ki hDHFR; cited from earlier work.
Series [5] deals with Leishmania major PTR1 (LmPTR1). As to conditions: read-out: Ki LmPTR1; cited from earlier work.
Series [6] addresses TbDHFR (Trypanosoma brucei brucei, UniProt Q27783). In words: biochemical.
Series [7] deals with LmDHFR (Leishmania major, UniProt P07382). Description: biochemical.
Sequence of LmDHFR (P07382 whole entry): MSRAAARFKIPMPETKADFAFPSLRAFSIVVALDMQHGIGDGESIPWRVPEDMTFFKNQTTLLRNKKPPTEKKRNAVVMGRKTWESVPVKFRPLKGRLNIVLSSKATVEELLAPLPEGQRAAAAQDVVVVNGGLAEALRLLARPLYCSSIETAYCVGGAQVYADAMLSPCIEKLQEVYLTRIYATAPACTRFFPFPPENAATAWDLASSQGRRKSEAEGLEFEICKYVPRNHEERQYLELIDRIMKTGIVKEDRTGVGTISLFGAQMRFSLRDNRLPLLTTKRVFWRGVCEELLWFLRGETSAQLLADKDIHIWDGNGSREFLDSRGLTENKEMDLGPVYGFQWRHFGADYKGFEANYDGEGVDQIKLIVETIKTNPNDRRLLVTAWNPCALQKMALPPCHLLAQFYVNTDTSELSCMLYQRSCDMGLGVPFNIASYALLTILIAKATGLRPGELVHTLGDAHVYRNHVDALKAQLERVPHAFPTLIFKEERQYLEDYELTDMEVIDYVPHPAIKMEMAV
The target in series [8] is hTS (Homo sapiens, UniProt P04818). Description: biochemical.
Sequence of hTS (P04818 whole entry): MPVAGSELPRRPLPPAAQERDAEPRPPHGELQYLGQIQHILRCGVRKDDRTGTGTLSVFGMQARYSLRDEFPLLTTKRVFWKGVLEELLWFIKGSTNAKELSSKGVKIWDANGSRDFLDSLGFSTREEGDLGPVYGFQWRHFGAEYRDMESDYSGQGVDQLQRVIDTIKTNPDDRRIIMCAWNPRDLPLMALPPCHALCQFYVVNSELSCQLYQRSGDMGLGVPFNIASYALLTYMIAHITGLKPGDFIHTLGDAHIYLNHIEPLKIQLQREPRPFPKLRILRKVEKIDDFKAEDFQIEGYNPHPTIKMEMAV
Series [9] deals with T1, hDHFR (Homo sapiens, UniProt P00374).
T1 sequence (P00374 1-187): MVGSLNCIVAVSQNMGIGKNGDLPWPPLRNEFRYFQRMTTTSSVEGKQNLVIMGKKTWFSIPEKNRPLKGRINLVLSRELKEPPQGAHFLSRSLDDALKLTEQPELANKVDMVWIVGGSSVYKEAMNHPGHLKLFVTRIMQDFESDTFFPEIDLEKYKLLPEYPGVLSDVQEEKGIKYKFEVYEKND
In words: biochemical. As to conditions: for hDHFR IC50: off-target.

Series [10] deals with T2, LmPTR1 (Leishmania major, UniProt Q01782).
T2 sequence (Q01782 1-288): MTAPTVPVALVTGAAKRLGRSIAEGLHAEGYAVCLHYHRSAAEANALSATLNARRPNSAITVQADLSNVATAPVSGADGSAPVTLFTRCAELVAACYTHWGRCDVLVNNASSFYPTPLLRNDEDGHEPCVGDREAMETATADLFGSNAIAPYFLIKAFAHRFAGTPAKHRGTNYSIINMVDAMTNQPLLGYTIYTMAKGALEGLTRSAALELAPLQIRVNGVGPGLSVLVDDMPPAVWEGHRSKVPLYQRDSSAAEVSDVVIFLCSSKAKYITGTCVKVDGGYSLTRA
In words: biochemical.

Sequence of TbDHFR (Q27783 whole entry): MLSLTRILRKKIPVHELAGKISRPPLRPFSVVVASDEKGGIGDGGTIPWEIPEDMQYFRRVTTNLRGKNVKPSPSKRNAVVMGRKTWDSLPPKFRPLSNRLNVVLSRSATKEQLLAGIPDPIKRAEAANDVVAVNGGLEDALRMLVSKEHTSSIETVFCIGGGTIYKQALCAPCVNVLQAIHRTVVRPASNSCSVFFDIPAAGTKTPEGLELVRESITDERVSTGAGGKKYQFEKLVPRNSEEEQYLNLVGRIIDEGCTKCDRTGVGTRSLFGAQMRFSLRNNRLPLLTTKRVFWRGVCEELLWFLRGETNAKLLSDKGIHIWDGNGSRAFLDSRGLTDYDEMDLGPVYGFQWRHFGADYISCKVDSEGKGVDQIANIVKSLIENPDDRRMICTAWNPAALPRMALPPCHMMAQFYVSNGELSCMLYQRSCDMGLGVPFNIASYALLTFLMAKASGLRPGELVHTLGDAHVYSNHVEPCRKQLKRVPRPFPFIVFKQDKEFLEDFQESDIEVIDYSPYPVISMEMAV

In the case of `COc1ccc(CNC(=O)c2ccc(CNCc3cnc4nc(N)nc(N)c4n3)cc2)cc1` [Compound 4f], the “% inhibition T. brucei at 10 µM ± SD” value in series [1] is “inactive”.

`CCN(Cc1cnc2nc(N)nc(N)c2n1)c1ccc(C(=O)c2ccccc2)cc1` [Compound 5d]: the CC50 in [2] was 25000 to 50000 nM.

Consider `COC(=O)C1CCN(C(=O)c2ccc(NCc3cnc4nc(N)nc(N)c4n3)cc2)CC1` [Compound 1c, methyl-1-(4-(((2,4-diaminopteridin-6-yl)methyl)amino)benzoyl)piperidine-4-carboxylate], for which the Ki in series [3] was 4000 nM; in series [4] it was 10000 nM; in series [5], 100 nM.

`COc1cc(Oc2ccc(CNCc3cnc4nc(N)nc(N)c4n3)cc2)cc(OC)c1OC` [Compound 4j]: the “% inhibition T. brucei at 10 µM ± SD” value in [1] was “inactive”.

`COC(=O)C1CCN(C(=O)c2ccc(N(C)Cc3cnc4nc(N)nc(N)c4n3)cc2)CC1` [Compound 1b, methyl-1-(4-(((2,4-diaminopteridin-6-yl)methyl)(methyl)amino)benzoyl)piperidine-4-carboxylate, reference compound]: the IC50 in [6] and in [7] was 300 nM in each case. Also, the Ki in [5] is 40 nM.

On to `COc1ccc(Oc2ccc(CN(Cc3ccccc3)Cc3cnc4nc(N)nc(N)c4n3)cc2)cc1` [Compound 5e], for which the 50% cytotoxic concentration (CC50) in series [2] fell in the range of 12500 to 25000 nM.

As to `COC(=O)C1CCN(C(=O)c2ccc(N(Cc3ccccc3)Cc3cnc4nc(N)nc(N)c4n3)cc2)CC1` [Compound 2c], the IC50 in series [6] is ~1000 nM. Further, the inhibition at 10 µM in series [1] was found to be 75%.

The compound `COc1ccc(Oc2ccc(CN(C)Cc3cnc4nc(N)nc(N)c4n3)cc2)cc1` [Compound 5f] came in with a CC50 in series [2] of 12500 to 25000 nM.

Turning to `Nc1nc(N)c2nc(CNc3ccc(C(=O)NCCc4ccccc4)cc3)cnc2n1` [Compound 4e], the inhibition at 10 µM in series [1] was found to be 40%.

Regarding `Nc1nc(N)c2nc(C(=O)NCc3ccccc3)cnc2n1` [Compound 3d], the “TbDHFR IC50” value in [6] is on record as “do not show inhibitory activity”. The “LmDHFR IC50” value in series [7] is recorded as “do not show inhibitory activity”.

With `CCOC(=O)C1CCN(C(=O)c2ccc(N(CC)Cc3cnc4nc(N)nc(N)c4n3)cc2)CC1` [Compound 5c], the half-maximal inhibitory concentration (IC50) in [7] is 200 nM.

`NC(=O)C1CCCN1C(=O)Cc1ccc(N(CCCO)Cc2cnc3nc(N)nc(N)c3n2)cc1` (centres unmarked) [Compound 5b] registered an IC50 in [8] of 29000 nM. For the same compound, in [9], the “hDHFR IC50” value is “inactive”.

As to `Nc1nc(N)c2nc(C(=O)NCc3cccc(C(F)(F)F)c3)cnc2n1` [Compound 3e], the “TbDHFR IC50” value in series [6] is recorded as “do not show inhibitory activity”. Besides, in series [7], the “LmDHFR IC50” value is “do not show inhibitory activity”.

`CN(Cc1cnc2nc(N)nc(N)c2n1)c1ccc(C(=O)N2CCCCC2)cc1` [Compound 4c] had a half-inhibitory concentration (IC50) in series [10] of 100 nM.

Regarding `Nc1nc(N)c2nc(CNc3cccc4ccccc34)cnc2n1` [Compound 3c], the IC50 in series [6] came to 500 nM; in series [9], 4000 nM.

For `COc1ccc(Oc2ccc(CNCc3cnc4nc(N)nc(N)c4n3)cc2)cc1` [Compound 4i], in series [6], the “TbDHFR IC50” value was “inactive”. In addition, the “LmDHFR IC50” value in series [7] was “inactive”. Also, the “hDHFR IC50” value in series [9] was “inactive”.

As for `CCOC(=O)C1CCN(C(=O)c2ccc(N(C)Cc3cnc4nc(N)nc(N)c4n3)cc2)CC1` [Compound 4a], in series [7], the IC50 came out at 100 nM.

In the case of `Nc1nc(N)c2nc(CNCc3ccc(Oc4ccccc4)cc3)cnc2n1` [Compound 4h], in series [1], the “% inhibition T. brucei at 10 µM ± SD” value is “inactive”.

The record behind these values is publication PMC9289884 (Journal of Medicinal Chemistry, 2022).
